According to article PMC6979384, “Characterization of the plant homeodomain (PHD) reader family for their histone tail interactions” (Epigenetics & Chromatin, 2020):

Tests used:
Test in all cases: Histone peptide microarray
Format in all cases: binding, human
AIRE (PP) = details: GST-tagged AIRE (PP); sheet Array Heatmap; each array performed twice, total n = 4
How it was run: (§1)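 GST-PHD reader, 0.5 μM, probed on 293-peptide histone array (single/combinatorial PTMs); optimized array protocol; signal = mean ± SD, n = 4.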

BAZ2B = details: GST-tagged BAZ2B; sheet Array Heatmap; each array performed twice, total n = 4
How it was run: as §1

BPTF (PB) = details: GST-tagged BPTF (PB = PHD + Bromodomain); sheet Array Heatmap; each array performed twice, total n = 4
How it was run: as §1

CHD4 (PPCC) = details: GST-tagged CHD4 (PPCC = Dual PHD + Dual Chromodomain); sheet Array Heatmap; each array performed twice, total n = 4
How it was run: as §1

CHD5 (PCC) = details: GST-tagged CHD5 (PCC = PHD + Dual Chromodomain); sheet Array Heatmap; each array performed twice, total n = 4
How it was run: as §1

CHD5 (PPCC) = details: GST-tagged CHD5 (PPCC = Dual PHD + Dual Chromodomain); sheet Array Heatmap; each array performed twice, total n = 4
How it was run: as §1

DIDO1 = details: GST-tagged DIDO1; sheet Array Heatmap; each array performed twice, total n = 4
How it was run: as §1

DPF2 (PPC2W2) = details: GST-tagged DPF2 (PPC2W2 = Dual PHD + C2W2-type Zn-finger); sheet Array Heatmap; each array performed twice, total n = 4
How it was run: as §1

ING1 = details: GST-tagged ING1; sheet Array Heatmap; each array performed twice, total n = 4
How it was run: as §1

ING2 = details: GST-tagged ING2; sheet Array Heatmap; each array performed twice, total n = 4
How it was run: as §1

ING3 = details: GST-tagged ING3; sheet Array Heatmap; each array performed twice, total n = 4
How it was run: as §1

ING4 = details: GST-tagged ING4; sheet Array Heatmap; each array performed twice, total n = 4
How it was run: as §1

ING5 = details: GST-tagged ING5; sheet Array Heatmap; each array performed twice, total n = 4
How it was run: as §1

KDM4C (TTP) = details: GST-tagged KDM4C (TTP = Tandem Tudor domain + PHD); sheet Array Heatmap; each array performed twice, total n = 4
How it was run: as §1

KDM5A (1) = details: GST-tagged KDM5A (1); sheet Array Heatmap; each array performed twice, total n = 4
How it was run: as §1

KDM5A (3) = details: GST-tagged KDM5A (3); sheet Array Heatmap; each array performed twice, total n = 4
How it was run: as §1

KDM5B (1) = details: GST-tagged KDM5B (1); sheet Array Heatmap; each array performed twice, total n = 4
How it was run: as §1

KDM5B (3) = details: GST-tagged KDM5B (3); sheet Array Heatmap; each array performed twice, total n = 4
How it was run: as §1

KDM7A = details: GST-tagged KDM7A; sheet Array Heatmap; each array performed twice, total n = 4
How it was run: as §1

MLL5 = details: GST-tagged MLL5; sheet Array Heatmap; each array performed twice, total n = 4
How it was run: as §1

MORC3 (CW) = details: GST-tagged MORC3 (CW = CW-type Zn-finger); sheet Array Heatmap; each array performed twice, total n = 4
How it was run: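 Purified PHD finger domains fused to GST are screened against 293 synthetic histone peptides bearing one or several post-translational modifications. The protein is used at 0.5 μM, and the signal from four replicate arrays is averaged, with standard deviation given.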

PHF13 = details: GST-tagged PHF13; sheet Array Heatmap; each array performed twice, total n = 4
How it was run: as §1

PHF21A = details: GST-tagged PHF21A; sheet Array Heatmap; each array performed twice, total n = 4
How it was run: as §1

PHF23 = details: GST-tagged PHF23; sheet Array Heatmap; each array performed twice, total n = 4
How it was run: as §1

PHF2 = details: GST-tagged PHF2; sheet Array Heatmap; each array performed twice, total n = 4
How it was run: as §1

PHF8 = details: GST-tagged PHF8; sheet Array Heatmap; each array performed twice, total n = 4
How it was run: as §1

PHRF1 (RP) = details: GST-tagged PHRF1 (RP); sheet Array Heatmap; each array performed twice, total n = 4
How it was run: as §1

RAG2 = details: GST-tagged RAG2; sheet Array Heatmap; each array performed twice, total n = 4
How it was run: as §1

SP140L = details: GST-tagged SP140L; sheet Array Heatmap; each array performed twice, total n = 4
How it was run: as §1

TAF3 = details: GST-tagged TAF3; sheet Array Heatmap; each array performed twice, total n = 4
How it was run: as §1

TRIM66 (PB) = details: GST-tagged TRIM66 (PB = PHD + Bromodomain); sheet Array Heatmap; each array performed twice, total n = 4
How it was run: as §1

H3R2me2a + K4me3 + K9ac + S10p + K14ac + K18ac: H3 1-20
Array Heatmap signal (histone peptide microarray) (AIRE (PP)): 0.4047
Array Heatmap signal (histone peptide microarray) (BAZ2B): 0.4937
Array Heatmap signal (histone peptide microarray) (BPTF (PB)): 0.3887
Array Heatmap signal (histone peptide microarray) (CHD4 (PPCC)): 0.6237
Array Heatmap signal (histone peptide microarray) (CHD5 (PCC)): 0.7925
Array Heatmap signal (histone peptide microarray) (CHD5 (PPCC)): 0.548
Array Heatmap signal (histone peptide microarray) (DIDO1): 0.8949
Array Heatmap signal (histone peptide microarray) (DPF2 (PPC2W2)): 0.6777
Array Heatmap signal (histone peptide microarray) (ING1): 0.5459
Array Heatmap signal (histone peptide microarray) (ING2): 0.6564
Array Heatmap signal (histone peptide microarray) (ING3): 0.4975
Array Heatmap signal (histone peptide microarray) (ING4): 0.4604
Array Heatmap signal (histone peptide microarray) (ING5): 0.3501
Array Heatmap signal (histone peptide microarray) (KDM4C (TTP)): 0.4723
Array Heatmap signal (histone peptide microarray) (KDM5A (1)): 0.4602
Array Heatmap signal (histone peptide microarray) (KDM5A (3)): 0.601
Array Heatmap signal (histone peptide microarray) (KDM5B (1)): 0.6513
Array Heatmap signal (histone peptide microarray) (KDM5B (3)): 0.4836
Array Heatmap signal (histone peptide microarray) (KDM7A): 0.3601
Array Heatmap signal (histone peptide microarray) (MLL5): 0.625
Array Heatmap signal (histone peptide microarray) (MORC3 (CW)): 0.5411
Array Heatmap signal (histone peptide microarray) (PHF13): 0.6389
Array Heatmap signal (histone peptide microarray) (PHF21A): 0.4526
Array Heatmap signal (histone peptide microarray) (PHF23): 0.5457
Array Heatmap signal (histone peptide microarray) (PHF2): 0.7095
Array Heatmap signal (histone peptide microarray) (PHF8): 0.4417
Array Heatmap signal (histone peptide microarray) (PHRF1 (RP)): 0.447
Array Heatmap signal (histone peptide microarray) (RAG2): 0.3777
Array Heatmap signal (histone peptide microarray) (SP140L): 0.3224
Array Heatmap signal (histone peptide microarray) (TAF3): 0.4085
Array Heatmap signal (histone peptide microarray) (TRIM66 (PB)): 0.5406

H3R2me2a + K4me3 + S10p: H3 1-20
Array Heatmap signal (histone peptide microarray) (AIRE (PP)): 0.4162
Array Heatmap signal (histone peptide microarray) (BAZ2B): 0.4437
Array Heatmap signal (histone peptide microarray) (BPTF (PB)): 0.396
Array Heatmap signal (histone peptide microarray) (CHD4 (PPCC)): 0.5987
Array Heatmap signal (histone peptide microarray) (CHD5 (PCC)): 0.741
Array Heatmap signal (histone peptide microarray) (CHD5 (PPCC)): 0.5451
Array Heatmap signal (histone peptide microarray) (DIDO1): 0.8994
Array Heatmap signal (histone peptide microarray) (DPF2 (PPC2W2)): 0.7179
Array Heatmap signal (histone peptide microarray) (ING1): 0.6296
Array Heatmap signal (histone peptide microarray) (ING2): 0.6788
Array Heatmap signal (histone peptide microarray) (ING3): 0.4991
Array Heatmap signal (histone peptide microarray) (ING4): 0.4698
Array Heatmap signal (histone peptide microarray) (ING5): 0.3497
Array Heatmap signal (histone peptide microarray) (KDM4C (TTP)): 0.4873
Array Heatmap signal (histone peptide microarray) (KDM5A (1)): 0.4568
Array Heatmap signal (histone peptide microarray) (KDM5A (3)): 0.7062
Array Heatmap signal (histone peptide microarray) (KDM5B (1)): 0.6814
Array Heatmap signal (histone peptide microarray) (KDM5B (3)): 0.5192
Array Heatmap signal (histone peptide microarray) (KDM7A): 0.3687
Array Heatmap signal (histone peptide microarray) (MLL5): 0.6475
Array Heatmap signal (histone peptide microarray) (MORC3 (CW)): 0.6914
Array Heatmap signal (histone peptide microarray) (PHF13): 0.6271
Array Heatmap signal (histone peptide microarray) (PHF21A): 0.4392
Array Heatmap signal (histone peptide microarray) (PHF23): 0.5952
Array Heatmap signal (histone peptide microarray) (PHF2): 0.8067
Array Heatmap signal (histone peptide microarray) (PHF8): 0.5293
Array Heatmap signal (histone peptide microarray) (PHRF1 (RP)): 0.4776
Array Heatmap signal (histone peptide microarray) (RAG2): 0.4658
Array Heatmap signal (histone peptide microarray) (SP140L): 0.356
Array Heatmap signal (histone peptide microarray) (TAF3): 0.3453
Array Heatmap signal (histone peptide microarray) (TRIM66 (PB)): 0.5905

H3R2me2a + K4me3: H3 1-20
Array Heatmap signal (histone peptide microarray) (AIRE (PP)): 0.4826
Array Heatmap signal (histone peptide microarray) (BAZ2B): 0.4862
Array Heatmap signal (histone peptide microarray) (BPTF (PB)): 0.4143
Array Heatmap signal (histone peptide microarray) (CHD4 (PPCC)): 0.5963
Array Heatmap signal (histone peptide microarray) (CHD5 (PCC)): 0.8429
Array Heatmap signal (histone peptide microarray) (CHD5 (PPCC)): 0.5913
Array Heatmap signal (histone peptide microarray) (DIDO1): 0.8005
Array Heatmap signal (histone peptide microarray) (DPF2 (PPC2W2)): 0.6763
Array Heatmap signal (histone peptide microarray) (ING1): 0.5767
Array Heatmap signal (histone peptide microarray) (ING2): 0.6869
Array Heatmap signal (histone peptide microarray) (ING3): 0.5638
Array Heatmap signal (histone peptide microarray) (ING4): 0.4758
Array Heatmap signal (histone peptide microarray) (ING5): 0.4004
Array Heatmap signal (histone peptide microarray) (KDM4C (TTP)): 0.6181
Array Heatmap signal (histone peptide microarray) (KDM5A (1)): 0.4987
Array Heatmap signal (histone peptide microarray) (KDM5A (3)): 0.8444
Array Heatmap signal (histone peptide microarray) (KDM5B (1)): 0.7318
Array Heatmap signal (histone peptide microarray) (KDM5B (3)): 0.6231
Array Heatmap signal (histone peptide microarray) (KDM7A): 0.5712
Array Heatmap signal (histone peptide microarray) (MLL5): 0.7481
Array Heatmap signal (histone peptide microarray) (MORC3 (CW)): 0.8119
Array Heatmap signal (histone peptide microarray) (PHF13): 0.6893
Array Heatmap signal (histone peptide microarray) (PHF21A): 0.4989
Array Heatmap signal (histone peptide microarray) (PHF23): 0.6448
Array Heatmap signal (histone peptide microarray) (PHF2): 0.6438
Array Heatmap signal (histone peptide microarray) (PHF8): 0.6195
Array Heatmap signal (histone peptide microarray) (PHRF1 (RP)): 0.4573
Array Heatmap signal (histone peptide microarray) (RAG2): 0.449
Array Heatmap signal (histone peptide microarray) (SP140L): 0.3488
Array Heatmap signal (histone peptide microarray) (TAF3): 0.3674
Array Heatmap signal (histone peptide microarray) (TRIM66 (PB)): 0.6477

H3R2me2a + T3p + K4me3 + K9ac + K14ac + K18ac: H3 1-20
Array Heatmap signal (histone peptide microarray) (AIRE (PP)): 0.414
Array Heatmap signal (histone peptide microarray) (BAZ2B): 0.4718
Array Heatmap signal (histone peptide microarray) (BPTF (PB)): 0.3469
Array Heatmap signal (histone peptide microarray) (CHD4 (PPCC)): 0.601
Array Heatmap signal (histone peptide microarray) (CHD5 (PCC)): 0.7369
Array Heatmap signal (histone peptide microarray) (CHD5 (PPCC)): 0.5374
Array Heatmap signal (histone peptide microarray) (DIDO1): 0.7634
Array Heatmap signal (histone peptide microarray) (DPF2 (PPC2W2)): 0.7018
Array Heatmap signal (histone peptide microarray) (ING1): 0.5919
Array Heatmap signal (histone peptide microarray) (ING2): 0.6041
Array Heatmap signal (histone peptide microarray) (ING3): 0.4704
Array Heatmap signal (histone peptide microarray) (ING4): 0.4544
Array Heatmap signal (histone peptide microarray) (ING5): 0.3446
Array Heatmap signal (histone peptide microarray) (KDM4C (TTP)): 0.4624
Array Heatmap signal (histone peptide microarray) (KDM5A (1)): 0.4561
Array Heatmap signal (histone peptide microarray) (KDM5A (3)): 0.4737
Array Heatmap signal (histone peptide microarray) (KDM5B (1)): 0.6524
Array Heatmap signal (histone peptide microarray) (KDM5B (3)): 0.4463
Array Heatmap signal (histone peptide microarray) (KDM7A): 0.3252
Array Heatmap signal (histone peptide microarray) (MLL5): 0.5392
Array Heatmap signal (histone peptide microarray) (MORC3 (CW)): 0.4346
Array Heatmap signal (histone peptide microarray) (PHF13): 0.5933
Array Heatmap signal (histone peptide microarray) (PHF21A): 0.4332
Array Heatmap signal (histone peptide microarray) (PHF23): 0.5518
Array Heatmap signal (histone peptide microarray) (PHF2): 0.6236
Array Heatmap signal (histone peptide microarray) (PHF8): 0.377
Array Heatmap signal (histone peptide microarray) (PHRF1 (RP)): 0.4697
Array Heatmap signal (histone peptide microarray) (RAG2): 0.2569
Array Heatmap signal (histone peptide microarray) (SP140L): 0.3444
Array Heatmap signal (histone peptide microarray) (TAF3): 0.2554
Array Heatmap signal (histone peptide microarray) (TRIM66 (PB)): 0.5775
